From US7550485B2, “Substituted N-heterocycle derivatives and methods of their use” (Wyeth, priority 2003, dated 2009)
Counter-ions that a name gives are not always drawn.

Biological target: T1, hNET (Homo sapiens, UniProt P23975)
T1 construct: expressed in transfected cells
Assay: Norepinephrine (NE) uptake assay in MDCK-Net6 cells stably transfected with human hNET
Assay type: cell-based
Details: [3H]NE uptake; for inhibition at 1 µM: MDCK-Net6, 1 μM test compound; for EC50: test range 1 to 10,000 nM
How it was run: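 MDCK-Net6 cells preincubated 20 min at 37 °C with compound (1 to 10,000 nM) in HEPES buffer pH 7.4 with pargyline and ascorbate, then 5 min [3H]NE uptake (120 nM final). Lysed cells counted by scintillation; 1 μM desipramine defined minimum uptake; EC50 from logistic fit of pooled data.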

T1 sequence (P23975 whole entry): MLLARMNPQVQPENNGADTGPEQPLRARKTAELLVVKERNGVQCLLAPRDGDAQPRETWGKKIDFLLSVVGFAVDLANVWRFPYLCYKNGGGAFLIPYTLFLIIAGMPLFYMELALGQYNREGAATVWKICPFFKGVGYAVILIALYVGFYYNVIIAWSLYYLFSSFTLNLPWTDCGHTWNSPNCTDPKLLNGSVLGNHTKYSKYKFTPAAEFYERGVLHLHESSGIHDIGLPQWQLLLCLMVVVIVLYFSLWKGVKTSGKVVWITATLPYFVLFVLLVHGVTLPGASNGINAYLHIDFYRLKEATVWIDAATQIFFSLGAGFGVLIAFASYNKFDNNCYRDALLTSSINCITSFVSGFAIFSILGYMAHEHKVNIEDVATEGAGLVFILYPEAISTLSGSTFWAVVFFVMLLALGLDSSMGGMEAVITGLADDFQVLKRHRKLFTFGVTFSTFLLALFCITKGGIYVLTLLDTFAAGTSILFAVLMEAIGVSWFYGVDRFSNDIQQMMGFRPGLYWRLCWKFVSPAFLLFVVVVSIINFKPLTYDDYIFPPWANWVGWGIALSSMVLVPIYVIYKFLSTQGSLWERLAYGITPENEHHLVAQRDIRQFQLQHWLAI

SMILES | inhibition at 1 µM | EC50 | inhibition at 30 µM (MDCK-Net6, 30 μM test compound (stated in cell))
C[C@@H]1CCC(O)([C@H](CN2CCC(N3CCCCC3)CC2)c2cccc(OC(F)(F)F)c2)C1 (stereo partly drawn) [Example 398, (3R)-1-{2-(1.4′-bipiperidin-1′-yl)-1-[3-(trifluoromethoxy)phenyl]ethyl}-3-methylcyclopentanol dihydrochloride] | 0% | – | –
CN(C)C1CCN(CC(c2ccc(OCc3ccccc3)c(Cl)c2)C2(O)CCCCC2)CC1 (stereo not shown) [Example 429, 1-{1-[4-(benzyloxy)-3-chlorophenyl]-2-[4-(dimethylamino)piperidin-1-yl]ethyl}cyclohexanol] | 96% | 180 nM | –
NC1CCN(CC(c2ccc(OCc3ccc4ccccc4c3)c(Cl)c2)C2(O)CCCCC2)CC1 (stereo not shown) [Example 430, 1-{2-(4-aminopiperidin-1-yl)-1-[3-chloro-4-(2-naphthylmethoxy)phenyl]ethyl}cyclohexanol dihydrochloride] | 42% | – | –
CN(C)C1CCN(CC(c2ccc(OCc3ccc4ccccc4c3)c(Cl)c2)C2(O)CCCCC2)CC1 (stereo not shown) [Example 431, 1-{1-[3-chloro-4-(2-naphthylmethoxyl)phenyl]-2-[4-(dimethylamino)piperidin-1-yl]ethyl}cyclohexanol dihydrochloride] | 79% | 54 nM | –
COc1cc(C(CN2CCC(N)CC2)C2(O)CCCCC2)ccc1OCc1ccccc1 (stereo not shown) [Example 450, 1-{2-(4-aminopiperidin-1-yl)-1-[4-(benzyloxy)-3-methoxyphenyl]ethyl}cyclohexanol dihydrochloride] | 79% | – | –
COc1cc(C(CN2CCC(N(C)C)CC2)C2(O)CCCCC2)ccc1OCc1ccccc1 (stereo not shown) [Example 451, 1-{1-[4-(benzyloxy)-3-methoxyphenyl]-2-[4-(dimethylamino)piperidin-1-yl]ethyl}cyclohexanol dihydrochloride] | 79% | – | –
COc1ccc(C(CN2CCC(N3CCCCC3)CC2)C2(O)CCCCC2)cc1Cl (stereo not shown) [Example 458, 1-[2-(1,4′-bipiperidin-1′-yl)-1-(3-chloro-4-methoxyphenyl)ethyl]cyclohexanol dihydrochloride] | 79% | – | –
OC1(C(CN2CCC(N3CCCCC3)CC2)c2ccc(OCCc3ccccc3)cc2)CCCCC1 (stereo not shown) [Example 461, 1-{2-(1,4′-bipiperidin-1′-yl)-1-[4-(2-phenylethoxy)phenyl]ethyl}cyclohexanol dihydrochloride] | 17% | – | –

Continued, values first:

inhibition at 1 µM | EC50 | inhibition at 30 µM (MDCK-Net6, 30 μM test compound (stated in cell)) | SMILES
88% | 450 nM | – | CN(C)[C@@H]1CCN(CC(c2ccc(OCc3ccccc3)c(Cl)c2)C2(O)CCCCC2)C1 (stereo partly drawn) [Example 384, 1-{1-[4-(benzyloxy)-3-chlorophenyl]-2-[(3R)-3-(dimethylamino)pyrrolidin-1-yl]ethyl}cyclohexanol dihydrochloride]
65% | 270 nM | – | CN[C@@H]1CCN(CC(c2ccc(OCc3ccccc3)c(Cl)c2)C2(O)CCCCC2)C1 (stereo partly drawn) [Example 385, 1-{1-[4-(benzyloxy)-3-chlorophenyl]-2-[(3R)-3-(methylamino)pyrrolidin-1-yl]ethyl}cyclohexanol dihydrochloride]
– | – | 82% | N[C@@H]1CCN(CC(c2cccc(OC(F)(F)F)c2)C2(O)CCCCC2)C1 (stereo partly drawn) [Example 386, 1-{2-[(3R)-3-aminopyrrolidin-1-yl]-1-[3-(trifluoromethoxy)phenyl]ethyl}cyclohexanol dihydrochloride]
– | 410 nM | – | N[C@H]1CCN(C[C@H](c2cccc(Cl)c2)C2(O)CCCCC2)C1 [Example 387, 1-[(1S)-2-[(3S)-3-aminopyrrolidin-1-yl]-1-(3-chlorophenyl)ethyl]cyclohexanol dihydrochloride]
– | 85 nM | – | N[C@H]1CCN(C[C@@H](c2cccc(Cl)c2)C2(O)CCCCC2)C1 [Example 388, 1-[(1 R)-2-[(3S)-3-aminopyrrolidin-1-yl]-1-(3-chlorophenyl)ethyl]cyclohexanol dihydrochloride]
92% | 110 nM | – | NC1CCN(CC(c2ccc(OCc3ccccc3)c(Cl)c2)C2(O)CCCCC2)CC1 (stereo not shown) [Example 428, 1-{2-(4-aminopiperidin-1-yl)-1-[4-(benzyloxy)-3-chlorophenyl]ethyl}cyclohexanol dihydrochloride]
